Measurements taken from US6808875B2, “Methods for screening cellular proliferation using isotope labels” (priority 1997, dated 2004).

Key:
[1] = Plasma glucose enrichment during labeled glucose infusion in rats; assay type: in vivo
Description: Trimethylsilyl derivatives of nucleosides were synthesized by incubation of lyophilized hydrolysates with BSTFA:pyridine (4:1) at 100° C. for 1 hour. Samples were analyzed by GC-MS (DB-17 HT column, J&W Scientific, Folsom Calif.; HP 5890 GC and 5971MS, Hewlett Packard, Palo Alto, Calif.). Abundances of ions at mass to charge ratio (m/z) 467 and 469 were quantified under selected ion recording mode for deoxyadenosine (dA); and m/z 555 and 557 were monitored for deoxyguanosine (dG). Under the derivatization and GC-MS conditions employed, the purines (dA and dG) gave larger peaks (FIG. 3) than the pyrimidines, resulting in greater sensitivity and a higher signal-to-noise ratio. To measure the enrichment of glucose, plasma or culture media were deproteinized with perchloric acid and passed through anion and cation exchange columns (Neese et al., 1995, J. Biol. Chem. 270:14452-14463). The glucose penta-acetate derivative was formed by incubation with acetic anhydride in pyridine. GC-MS analysis was performed as described previously (Neese et al., 1995, J. Biol. Chem […]), monitoring m/z 331 and 333 under selected ion recording.
Four rats (approximately 250 g) were infused with labeled glucose. […] DNA was extracted from cell preparations, then hydrolyzed to nucleosides and analyzed by GC-MS (FIG. 2). […]

[2] = human, in vivo
Description: (§1) Trimethylsilyl derivatives of nucleosides were synthesized by incubation of lyophilized hydrolysates with BSTFA:pyridine (4:1) at 100° C. for 1 hour. Samples were analyzed by GC-MS (DB-17 HT column, J&W Scientific, Folsom Calif.; HP 5890 GC and 5971MS, Hewlett Packard, Palo Alto, Calif.). Abundances of ions at mass to charge ratio (m/z) 467 and 469 were quantified under selected ion recording mode for deoxyadenosine (dA); and m/z 555 and 557 were monitored for deoxyguanosine (dG). Under the derivatization and GC-MS conditions employed, the purines (dA and dG) gave larger peaks (FIG. 3) than the pyrimidines, resulting in greater sensitivity and a higher signal-to-noise ratio. […]
One subject was a healthy normal volunteer and the other three were HIV-seropositive men, who were participating in lymphocyte kinetic studies (blood CD4 T cell counts in the range 215-377/mm^3). […] Granulocyte DNA was extracted, hydrolyzed to nucleosides and analyzed by GC-MS, as described in Section 6.1.2, supra. […]
All were clinically stable at the time of investigation. […] Granulocytes were isolated and dA enrichment measured from DNA. […]
48-hr constant intravenous infusions of labeled glucose were performed to ensure a representative time sample of T cell kinetics. Enrichments of plasma glucose were measured every 12 hr during the infusion. […]

HIV-1 = conditions: Patient #6, previous protease inhibitor
[3] = test system: lymphocytic cell line, H9; assay: Label incorporation into dA of DNA in cultured H9 cells (GC-MS, cell counting); assay type: cell-based; conditions: H9, unlabeled glycerol
Description: (§2) DNA was prepared from cells or tissues by phenol-chloroform-isoamyl alcohol extraction of cell suspensions or tissue homogenates. Yield and purity were confirmed by optical density. After heat denaturation, DNA was hydrolyzed enzymatically to deoxyribonucleosides by sequential digestion with nuclease P1, phosphodiesterase, and alkaline phosphatase, as described by Crain et al. (Crain, 1990, Methods Enzymol. 193:782-790). Nucleoside yield and purity were confirmed by HPLC using a C-18 column and water-methanol gradient (Shigenaga et al., 1994, Methods Enzymol. 234:16-33).
as §1, with “(dG).” for “(dG). Under the derivatization and GC-MS conditions employed, the purines (dA and dG) gave larger peaks (FIG. 3) than the pyrimidines, resulting in greater sensitivity and a higher signal-to-noise ratio.”
(§3) Two cell lines were used: a hepatocyte cell line, HepG2, and a lymphocytic cell line, H9, which is a CD4^+ T cell line. […] In both cases the number of cells present was measured by counting an aliquot on a Coulter ZM0901 cell counter. […]

[4] = test system: hepatocyte cell line, HepG2; assay: Label incorporation into dA of DNA in cultured HepG2 cells (GC-MS, cell counting); assay type: cell-based; conditions: HepG2, unlabeled glycerol
Description: as §2
as §1, with “(dG).” for “(dG). Under the derivatization and GC-MS conditions employed, the purines (dA and dG) gave larger peaks (FIG. 3) than the pyrimidines, resulting in greater sensitivity and a higher signal-to-noise ratio.”
as §3

[2H]C([2H])(O)[C@H]1OC(O)[C@H](O)[C@@H](O)[C@@H]1O (stereo partly drawn) [[6,6-^2H2] glucose]
Mean glucose enrichment for the 24 hr infusion period ([1]; rat, in vivo): 9.2±0.6%
Plasma glucose enrichment at sacrifice ([1]; rats (n=4), iv infusion approximately 24 hours, fasting): 13.2±0.9%
Plasma enrichment after discontinuing the intravenous infusion, % of steady-state values [2]: < 10%

CC(C)(C)NC(=O)[C@@H]1CN(Cc2cccnc2)CCN1C[C@@H](O)C[C@@H](Cc1ccccc1)C(=O)N[C@H]1c2ccccc2C[C@H]1O [indinavir]
viral load at failure (HIV-1): 28,000

OCC(O)CO [unlabeled glycerol, glycerol]
Effect on labeling from 10% [6,6-^2H2] glucose [3]: did not affect labeling
Reduction of incorporation into dA from 10% [6,6-^2H2] glucose [4]: 7%
